Assay results taken from US20020137929A1, “1 - (3-heterocyclylphenyl) isothiourea, -isourea, -guanidine and -amidine herbicidal agents” (Intellectual Property Department, BASF Aktiengesellschaft, priority 1998, published 2002).

Legend:
ECHCG (Barnyardgrass) = assay: Postemergence herbicidal evaluation; type: in vivo, Echinochloa crus-galli; details: for ECHCG herbicidal rating: postemergence
In short: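 Two-week seedlings sprayed postemergence at 40 psi; formulation: 1:1 acetone/water, 0.5% TWEEN 20; application ≈0.0156–0.500 kg/ha. Greenhouse grow-out, then 0–9 visual scoring at 4–5 weeks.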

[1] = tested on: CHEAL (Lambsquarters, Common); assay: Preemergence herbicidal evaluation; type: in vivo, Chenopodium album; details: rated 4-5 weeks after treatment
In short: (§1)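 Visual 0-9 rating vs control (stand, vigor, malformation, size, chlorosis, overall appearance), scored 4-5 wk after spraying. Seeded soil cups were treated preemergence with compound in aqueous acetone, ~0.0156-0.500 kg/ha equivalent.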

ORYSAT (Rice, Tebonnet) [2] = assay: Preemergence herbicidal evaluation; type: in vivo, Oryza sativa, (L.) Tebonnet; details: rated 4-5 weeks after treatment
In short: as §1

[3] = tested on: ECHORC (Watergrass (Calif.)); assay: Preemergence weed control under flooded paddy conditions; type: in vivo, Echinochloa oryzoides; details: rated 3-4 weeks after treatment
In short: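 First, seeds or propagules go into the top 0.5 cm of silt loam; next, water is held 1.5 to 3 cm over the soil; then compound (50/50 acetone/water) is pipetted into it at about 0.0313 to 0.500 kg/ha; finally plants are rated visually 0-9 after three to four weeks.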

CYPSE (Flatsedge) = assay: as above; type: in vivo, Cyperus serotinus; details: rated 3-4 weeks after treatment
In short: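 Greenhouse paddy assay. Acetone/water (50/50 v/v) solutions dosed into flood water, equivalent to about 0.0313 to 0.500 kg/ha active ingredient, over seeds planted 0.5 cm deep in silt loam. Score: 0-9 visual, based on stand, vigor, malformation, size and chlorosis, 3 to 4 weeks after treatment.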

ORYSAT (Rice, Tebonnet) [4] = assay: Rice tolerance to post-transplant applications, flooded paddy conditions (Table III); type: in vivo, Oryza sativa, (L.) Tebonnet
In short: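 Injury scored 0-9 by eye against untreated control, judging stand, vigor, malformation, size and chlorosis, three to four weeks after treatment. Compound in 50/50 aqueous/acetone, about 0.0313 to 0.500 kg/ha, was applied to paddy water (1.5 to 3 cm depth) three days after transplanting paired ten-day-old Tebonnet rice seedlings.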

ORYSAT (Rice, Tebonnet) [5] = assay: Rice tolerance to post-transplant applications, flooded paddy conditions (Table IV); type: in vivo, Oryza sativa, (L.) Tebonnet
Text: Results of herbicide evaluation are expressed on a rating scale (0-9). The scale is based upon a visual observation of plant stand, vigor, malformation, size, chlorosis and overall plant appearance as compared with a control.
Plastic containers containing weeds which are 3 to 5 cm tall and rice seedlings at the 1.5 to 2.5 leaf stage are flooded with water. The water is maintained at 1.5 to 3 cm above the soil surface for the duration of the experiment. Test compounds are applied as aqueous/ acetone mixtures 50/50 v/v directly into the flood water to provide the equivalent of about 0.0313 to 0.500 kg/ha of active ingredient. The treated containers are placed on greenhouse benches and cared for in accordance with conventional greenhouse procedures. Three to four weeks after treatment, the test is terminated and each container is examined and herbicidal effect rated according to the rating system provided in Example 37. The compounds evaluated are reported by compound number given in Example 37.

MOOVA (Monochoria) = assay: Postemergence weed control under flooded paddy conditions; type: in vivo, Monochoria vaginalis; details: postemergence weeds, 3-4 weeks after treatment
In short: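 Flood-water application, about 0.0313–0.500 kg/ha a.i. in aqueous/acetone 50/50 v/v; water depth 1.5–3 cm throughout. Weeds 3–5 cm, rice 1.5–2.5 leaf. Greenhouse; 0–9 visual rating vs control at 3–4 wk.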

| Compound | Postemergence herbicidal rating ECHCG (ECHCG (Barnyardgrass); Rate 0.0158 kg/ha) | Postemergence herbicidal rating ECHCG (ECHCG (Barnyardgrass); Rate 0.0315 kg/ha) | Postemergence herbicidal rating ECHCG (ECHCG (Barnyardgrass); Rate 0.0630 kg/ha) | Preemergence herbicidal rating CHEAL ([1]; rate 0.0156 kg/ha) | Preemergence herbicidal rating CHEAL ([1]; rate 0.0625 kg/ha) | Preemergence herbicidal rating CHEAL ([1]; rate 0.1250 kg/ha) | Preemergence herbicidal rating CHEAL ([1]; rate 0.2500 kg/ha) | Preemergence herbicidal rating ORYSAT (ORYSAT (Rice, Tebonnet) [2]; rate 0.0156 kg/ha) | Preemergence herbicidal rating ORYSAT (ORYSAT (Rice, Tebonnet) [2]; rate 0.0313 kg/ha) | Preemergence herbicidal rating ORYSAT (ORYSAT (Rice, Tebonnet) [2]; rate 0.0625 kg/ha) | Preemergence herbicidal rating ORYSAT (ORYSAT (Rice, Tebonnet) [2]; rate 0.1250 kg/ha) | Preemergence herbicidal rating ORYSAT (ORYSAT (Rice, Tebonnet) [2]; rate 0.2500 kg/ha) | Herbicidal rating ECHORC ([3]; 0.2500 kg/ha) | Herbicidal rating CYPSE (CYPSE (Flatsedge); 0.2500 kg/ha) | Herbicidal rating ORYSAT (rice tolerance) (ORYSAT (Rice, Tebonnet) [4]; in vivo) | Herbicidal rating ORYSAT (rice tolerance) (ORYSAT (Rice, Tebonnet) [5]; in vivo) | ECHCG herbicidal rating (ECHCG (Barnyardgrass); rate 0.0158 kg/ha) | ECHCG herbicidal rating (ECHCG (Barnyardgrass); rate 0.0315 kg/ha) | ECHCG herbicidal rating (ECHCG (Barnyardgrass); rate 0.0630 kg/ha) | Preemergence herbicidal rating CHEAL ([1]; rate 0.0313 kg/ha) | further results |
| --- | --- | --- | --- | --- | --- | --- | --- | --- | --- | --- | --- | --- | --- | --- | --- | --- | --- | --- | --- | --- | --- |
| CCOC(=O)CN1C(=O)C(CC(=O)O)SC1=Nc1cc(-n2c(=O)cc(C(F)(F)F)n(C)c2=O)c(Cl)cc1Cl (stereo not drawn) [Compound 33, 2-{{2,4-Dichloro-5-[3,6-dihydro-3-methyl-2,6-dioxo-4-(trifluoromethyl)-1(2H)-pyrimidinyl]phenyl}-imino}-4-oxo-3,5-thiazolidinediacetic acid, 3-ethyl ester] | 2.0 | 9.0 | 9.0 | 4.0 | 7.0 | 9.0 | 9.0 | 0.0 | 0.0 | 0.0 | 0.0 | 0.0 | 0.0 | 0.0 | 0.0 | 0.0 |  |  |  |  |  |
| CC(C)C[C@@H](C(=O)O)N1C(=O)CSC1=Nc1cc(-n2c(=O)cc(C(F)(F)F)n(C)c2=O)c(F)cc1Cl [Compound 71, α-Isobutyl-2-{{2-chloro-5-[3,6-dihydro-3-methyl-2,6-dioxo-4-(trifluoromethyl)-1(2H)-pyrimidinyl]-4-fluorophenyl}imino}-4-oxo-3-thiazolidineacetic acid, L-] |  |  |  | 3.0 | 9.0 | 9.0 | 9.0 | 0.0 | 0.0 | 0.0 | 1.0 | 3.0 |  |  |  | 4.0 | 4.0 | 4.0 | 4.0 | 9.0 | ECHORC herbicidal effect rating ([3]; 0.1250 kg/ha): 0.0; ECHORC herbicidal effect rating ([3]; 0.2500 kg/ha): 7.0; CYPSE herbicidal effect rating (CYPSE (Flatsedge); 0.1250 kg/ha): 3.0; CYPSE herbicidal effect rating (CYPSE (Flatsedge); 0.2500 kg/ha): 3.0; ORYSAT herbicidal effect rating (rice tolerance) (ORYSAT (Rice, Tebonnet) [4]; in vivo): 4.0 |
| CCOC(=O)CN1CC(=O)N(CC(=O)OCC)C1=Nc1cc(-n2c(=O)cc(C(F)(F)F)n(C)c2=O)c(F)cc1Cl [Compound 34, 2-{{2-Chloro-5-[3,6-dihydro-3-methyl-2,6-dioxo-4-(trifluoromethyl)-1(2H)-pyrimidinyl]-4-fluoro-phenyl}imino}-4-oxo-1,3-imidazolidinediacetic acid, diethyl ester] | 0.0 | 0.0 | 1.0 |  | 9.0 | 9.0 | 9.0 |  | 0.0 | 0.0 | 2.0 | 5.0 | 9.0 | 0.0 |  |  |  |  |  | 9.0 | Herbicidal rating ECHORC ([3]; 0.0313 kg/ha): 3.0; Herbicidal rating ECHORC ([3]; 0.0625 kg/ha): 4.0; Herbicidal rating ECHORC ([3]; 0.1250 kg/ha): 4.0; Herbicidal rating CYPSE (CYPSE (Flatsedge); 0.0313 kg/ha): 0.0; Herbicidal rating CYPSE (CYPSE (Flatsedge); 0.0625 kg/ha): 0.0; Herbicidal rating CYPSE (CYPSE (Flatsedge); 0.1250 kg/ha): 0.0; Herbicidal rating ORYSAT (rice tolerance) (ORYSAT (Rice, Tebonnet) [4]; 0.0313 kg/ha, post-transplant rice, flooded paddy, rated 3-4 weeks after treatment): 3.0; Herbicidal rating ORYSAT (rice tolerance) (ORYSAT (Rice, Tebonnet) [4]; 0.0625 kg/ha, post-transplant rice, flooded paddy, rated 3-4 weeks after treatment): 3.0; Herbicidal rating ORYSAT (rice tolerance) (ORYSAT (Rice, Tebonnet) [4]; 0.1250 kg/ha, post-transplant rice, flooded paddy, rated 3-4 weeks after treatment): 4.0; Herbicidal rating ORYSAT (rice tolerance) (ORYSAT (Rice, Tebonnet) [4]; 0.2500 kg/ha, post-transplant rice, flooded paddy, rated 3-4 weeks after treatment): 6.0; Herbicidal rating ORYSAT (rice tolerance) (ORYSAT (Rice, Tebonnet) [5]; rate 0.0313 kg/ha, flooded paddy, post-transplant rice, 3-4 weeks after treatment): 3.0; Herbicidal rating ORYSAT (rice tolerance) (ORYSAT (Rice, Tebonnet) [5]; rate 0.0625 kg/ha, flooded paddy, post-transplant rice, 3-4 weeks after treatment): 3.0; Herbicidal rating ORYSAT (rice tolerance) (ORYSAT (Rice, Tebonnet) [5]; rate 0.1250 kg/ha, flooded paddy, post-transplant rice, 3-4 weeks after treatment): 4.0; Herbicidal rating ORYSAT (rice tolerance) (ORYSAT (Rice, Tebonnet) [5]; rate 0.2500 kg/ha, flooded paddy, post-transplant rice, 3-4 weeks after treatment): 6.0 |
| CCOC(=O)CN1C(=O)C(Cc2ccccc2)SC1=Nc1cc(-n2c(=O)cc(C(F)(F)F)n(C)c2=O)c(F)cc1Cl (stereo not drawn) [Compound 24, Ethyl 5-benzyl-2-{{2-chloro-5-[3,6-dihydro-3-methyl-2,6-dioxo-4-(trifluoromethyl)-1(2H)-pyrimidinyl]-4-fluorophenyl}imino}-4-oxo-3-thiazolidineacetate] |  |  |  |  |  |  |  |  |  |  |  |  | 9.0 |  | 0.0 | 0.0 | 0.0 | 0.0 | 0.0 |  | CHEAL preemergence herbicidal rating ([1]; rate 0.0625 kg/ha): 9.0; CHEAL preemergence herbicidal rating ([1]; rate 0.1250 kg/ha): 9.0; CHEAL preemergence herbicidal rating ([1]; rate 0.2500 kg/ha): 9.0; ORYSAT preemergence herbicidal rating (ORYSAT (Rice, Tebonnet) [2]; rate 0.0625 kg/ha): 0.0; ORYSAT preemergence herbicidal rating (ORYSAT (Rice, Tebonnet) [2]; rate 0.1250 kg/ha): 0.0; ORYSAT preemergence herbicidal rating (ORYSAT (Rice, Tebonnet) [2]; rate 0.2500 kg/ha): 0.0; Herbicidal rating ECHORC ([3]; 0.0313 kg/ha): 4.0; Herbicidal rating ECHORC ([3]; 0.0625 kg/ha): 9.0; Herbicidal rating ECHORC ([3]; 0.1250 kg/ha): 9.0; Herbicidal rating MOOVA (MOOVA (Monochoria); rate 0.0313 kg/ha): 0.0; Herbicidal rating MOOVA (MOOVA (Monochoria); rate 0.0625 kg/ha): 9.0; Herbicidal rating MOOVA (MOOVA (Monochoria); rate 0.1250 kg/ha): 9.0; Herbicidal rating MOOVA (MOOVA (Monochoria); rate 0.2500 kg/ha): 9.0 |
